From ChEMBL document CHEMBL2150874, “Novel and selective inhibitors of histone deacetylase: patent highlight” (ACS Med Chem Lett, 2012) come the findings set out here.

Test [1] addresses T1, Protein deacetylase HDAC6 (Homo sapiens, UniProt Q9UBN7).
T1 sequence (Q9UBN7 whole entry): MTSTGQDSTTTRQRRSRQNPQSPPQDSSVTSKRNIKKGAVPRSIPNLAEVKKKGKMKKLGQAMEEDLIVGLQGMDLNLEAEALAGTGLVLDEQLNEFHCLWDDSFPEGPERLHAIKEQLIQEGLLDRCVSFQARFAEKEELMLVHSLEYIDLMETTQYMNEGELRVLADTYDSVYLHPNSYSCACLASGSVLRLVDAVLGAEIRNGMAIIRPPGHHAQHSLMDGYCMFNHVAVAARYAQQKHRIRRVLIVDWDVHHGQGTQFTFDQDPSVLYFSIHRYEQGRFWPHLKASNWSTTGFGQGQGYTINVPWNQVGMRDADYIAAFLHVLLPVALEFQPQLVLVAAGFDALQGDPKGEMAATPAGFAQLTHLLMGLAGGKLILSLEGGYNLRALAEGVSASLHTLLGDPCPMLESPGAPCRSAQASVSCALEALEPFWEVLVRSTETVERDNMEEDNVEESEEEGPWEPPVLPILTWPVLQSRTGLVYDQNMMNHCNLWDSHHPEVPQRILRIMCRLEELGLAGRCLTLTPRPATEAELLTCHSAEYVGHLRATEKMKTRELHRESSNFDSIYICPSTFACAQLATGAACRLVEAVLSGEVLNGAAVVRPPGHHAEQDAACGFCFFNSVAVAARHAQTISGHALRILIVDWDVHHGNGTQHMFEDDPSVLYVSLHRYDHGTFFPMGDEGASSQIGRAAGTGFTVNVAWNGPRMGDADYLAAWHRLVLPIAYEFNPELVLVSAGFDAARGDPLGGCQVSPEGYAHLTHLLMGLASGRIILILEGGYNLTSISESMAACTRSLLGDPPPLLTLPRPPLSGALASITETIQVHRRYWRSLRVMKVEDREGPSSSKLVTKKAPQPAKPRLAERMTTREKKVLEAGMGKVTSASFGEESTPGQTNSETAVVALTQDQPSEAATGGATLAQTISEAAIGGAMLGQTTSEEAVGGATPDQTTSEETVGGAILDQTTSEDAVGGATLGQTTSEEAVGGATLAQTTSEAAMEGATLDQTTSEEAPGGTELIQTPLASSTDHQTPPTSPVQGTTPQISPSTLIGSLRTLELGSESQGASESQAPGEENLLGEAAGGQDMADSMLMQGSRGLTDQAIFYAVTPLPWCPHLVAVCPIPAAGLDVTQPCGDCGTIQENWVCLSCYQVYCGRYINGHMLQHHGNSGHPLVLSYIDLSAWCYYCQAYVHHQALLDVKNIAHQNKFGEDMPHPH
Kind of test: Inhibition of HDAC6.

Test [2] has as its system PC-12. As to the kind of experiment: Neuroprotective activity in rat PC12 cells at 1 uM by lactate dehydrogenase assay. It is filed as functional.

Usually IC50 stands for the concentration that gives 50% inhibition. The low end stands for greater potency, the high end for weaker potency.

As to `O=C(NO)c1ccc2c(c1)CN(C(=O)/C(=C/c1ccccc1)c1ccccc1)CC2`, the IC50 in test [1] was below 1 nM. In test [2], this molecule had an Activity of 36.6%.
Molecule `O=C(NO)c1ccc2c(c1)CN(C(=O)/C(=C/c1ccc(F)cc1F)c1ccc(F)cc1)CC2` registered an IC50 in test [1] below 1 nM. The Activity in test [2] turned out to be 56%.
`COc1cc(/C=C(/C(=O)N2CCc3ccc(C(=O)NO)cc3C2)c2ccc(F)cc2)ccc1F` had a half-inhibitory concentration (IC50) in test [1] below 1 nM. In addition, the Activity in test [2] amounted to 67.2%.
The corresponding values for `COc1ccc(/C=C(/C(=O)N2CCc3ccc(C(=O)NO)cc3C2)c2ccccc2F)cc1OC` are below 1 nM and 100%.
On the same counts, the results for `O=C(NO)c1ccc2c(c1)CN(C(=O)/C(=C/c1ccccc1)c1cccc(Cl)c1)CC2` are below 1 nM and 77.8%.
On the same counts, the results for `Cc1ccc(/C(=C\c2ccccc2)C(=O)N2CCc3ccc(C(=O)NO)cc3C2)cc1` are below 1 nM and 68.7%.
In test [1], `O=C(NO)c1ccc2c(c1)CN(C(=O)/C(=C/c1cccs1)c1ccc(F)cc1)CC2` displayed an IC50 below 1 nM. Besides, in test [2], the Activity was found to be 71.8%.
The corresponding values for `COc1ccc(/C=C(/C(=O)N2CCc3ccc(C(=O)NO)cc3C2)c2ccc(F)cc2)c(OC)c1` are below 1 nM and 38%.
As to `COc1ccc(/C=C(/C(=O)N2CCc3ccc(C(=O)NO)cc3C2)c2ccccc2)cc1`, the IC50 in test [1] is below 1 nM. The Activity in test [2] is on record as 55%.
On the same counts, the results for `Cc1ccc(/C(=C\c2ccc(F)cc2)C(=O)N2CCc3ccc(C(=O)NO)cc3C2)cc1` are below 1 nM and 100%.
